Results taken from patent publication US20100179093A1, “Neoropeptide-2-Receptor (Y-2R) Agonists” (priority 2008, published 2010).
pEC50: −log10 of the molar value.

Key:
Assay type in all cases: cell-based
hNPY2R [1] = target: T1, hNPY2R (Homo sapiens, UniProt P49146); assay: CaFlux Assay (FLIPR), Y2R; set-up: expressed in transfected cells; host or cells: HEK-293 stably expressing G protein chimera Gaqi9
T1 sequence (P49146 1-381): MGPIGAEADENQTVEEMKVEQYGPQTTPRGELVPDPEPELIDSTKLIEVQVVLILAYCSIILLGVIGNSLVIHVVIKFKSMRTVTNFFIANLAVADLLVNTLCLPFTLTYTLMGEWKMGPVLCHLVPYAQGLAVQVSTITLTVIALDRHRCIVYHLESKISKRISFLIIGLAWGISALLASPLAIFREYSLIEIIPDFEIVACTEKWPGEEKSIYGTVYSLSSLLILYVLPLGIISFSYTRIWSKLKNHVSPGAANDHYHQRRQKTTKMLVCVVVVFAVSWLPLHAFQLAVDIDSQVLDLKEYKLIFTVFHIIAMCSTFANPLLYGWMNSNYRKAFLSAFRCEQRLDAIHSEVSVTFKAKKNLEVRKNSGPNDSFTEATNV
Experimental: Hek-293 cells were stably transfected with the G protein chimera Gaqi9 and the hygromycin-B resistance gene were further transfected with the human NPY2 receptor and G418 antibiotic selection. Following selection in both hygromycin-B and G418, individual clones were assayed for their response to PYY. The transfected cells were cultured in DMEM medium supplemented with 10% fetal bovine serum, 50 μg/mL hygromycin-B 2 mM glutamine, 100 U/mL penicillin, 100 μg/mL streptomycin and 250 μg/mL G418. Cells are harvested with trypsin-EDTA and counted using ViaCount reagent. The cell suspension volume is adjusted to 4.8×10^5 cells/mL with complete growth media. Aliquots of 25 μL are dispensed into 384 well Poly-D Lysine coated black/clear microplates (Falcon) and the microplates were placed in a 37° C. CO2 incubator overnight. Loading Buffer (Calcium-3 Assay Kit, Molecular Devices) was prepared by dissolving the contents of one vial (Express Kit) into 1000 mL Hank's Balanced Salt Solution containing 20 mM HEPES and 5 mM probenecid. Aliquots of 25 μL of diluted dye were dispensed into the cell plates and the plates are then incubated for 1 hour at 37° C. During the incubation, test compounds were prepared at 3.5× the desired concentration in HBSS (20 mM HEPES)/0.05% BSA/1% DMSO and transferred to a 384 well plate for use on FLIPR. After incubation, both the cell and compound plates were brought to the FLIPR and 20 μL of the diluted compounds were transferred to the cell plates by the FLIPR. During the assay, fluorescence readings were taken simultaneously from all 384 wells of the cell plate every 1.5 seconds. Five readings were taken to establish a stable baseline, and then 20 μL of sample was rapidly (30 μL/sec) and simultaneously added to each well of the cell plate. The fluorescence was continuously monitored before, during and after sample addition for a total elapsed time of 100 seconds. Responses (increase in peak fluorescence) in each well following addition were determined. The initial fluorescence reading from each well, prior to ligand stimulation, was used as a zero baseline value for the data from that well. The responses are expressed as % of maximal response of the positive control.

Y5R = target: T2, Y5R (Homo sapiens, UniProt Q15761); assay: CaFlux Assay (FLIPR), Y5R; settings: for Emax: read-out: Y5R FLIPR, percentage in parentheses under the EC50;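 as to Emax: percent of the maximal response of the positive control agonist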
T2 sequence (Q15761 1-445): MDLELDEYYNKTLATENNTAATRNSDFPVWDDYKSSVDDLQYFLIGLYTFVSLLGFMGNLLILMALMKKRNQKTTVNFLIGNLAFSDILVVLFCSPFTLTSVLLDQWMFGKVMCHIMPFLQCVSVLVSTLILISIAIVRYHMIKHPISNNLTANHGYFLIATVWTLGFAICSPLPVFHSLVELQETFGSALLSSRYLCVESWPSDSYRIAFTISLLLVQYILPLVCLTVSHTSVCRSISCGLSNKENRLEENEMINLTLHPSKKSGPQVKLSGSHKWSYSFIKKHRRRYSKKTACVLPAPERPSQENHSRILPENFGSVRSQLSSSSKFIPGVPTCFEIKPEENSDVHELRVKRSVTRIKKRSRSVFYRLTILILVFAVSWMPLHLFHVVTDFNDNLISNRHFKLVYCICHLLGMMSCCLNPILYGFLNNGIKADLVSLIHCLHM

hNPY2R [2] = target: T1, hNPY2R; assay: cAMP Agonist Assay, HEK293/hNPY2R cells; set-up: expressed in transfected cells; host or cells: HEK293/hNPY2R (G418 selection)
Experimental: On the first day, medium was discarded, and the monolayer cells were washed with 10 mL PBS per flask (T225). […] The flask was gently tapped and the cell suspension was pooled. Each flask was rinsed with 10 mL plating medium and centrifuged at 1000 rpm for 5 min. The suspension was pooled and counted. The suspension was resuspended in plating medium at a density of 2.0×10^5 cells/mL for HEK293/hNPY2R. 50 microliters of cells (HEK293/hNPY2R-10,000 cells/well) were transferred into the 384-well plate using Multi-drop dispenser. The plates were incubated at 37° C. overnight. […] The media and reagents were allowed to come to room temperature. Before the dilutions were prepared, the stock solution of stimulating compound in dimethyl sulphoxide (DMSO, Sigma, cat #D2650) was allowed to warm up to 32 C for 5-10 min. […] The cell medium was tapped off with a gentle inversion of the cell plate on a paper towel. 50 μL of stimulation medium was placed per well (each concentration done in four replicates). The plates were incubated at room temperature for 30 min, and the cells were checked under a microscope for toxicity. After 30 minutes of treatment, the stimulation media was discarded and 50 mL/well of Assay Lysis Buffer (provided in the Tropix kit) was added. The plates were incubated for 45 min@37° C. 20 μL of the lysate was transferred from stimulation plates into the pre-coated antibody plates (384-well) from the Tropix kit. 10 μL of AP conjugate and 20 μL of anti-cAMP antibody was added. The plates were incubated at room temperature while shaking for 1 hour. The plates were then washed 5 times with Wash Buffer, 70 μL per well for each wash. The plates were tapped to dry. 30 μL/well of CSPD/Saphire-II RTU substrate/enhancer solution was added and incubated for 45 min @ RT (shake). Signal for 1 sec/well in a Luminometer.

Y1R = target: T3, Y1R (Homo sapiens, UniProt P25929); assay: CaFlux Assay (FLIPR), Y1R
T3 sequence (P25929 1-384): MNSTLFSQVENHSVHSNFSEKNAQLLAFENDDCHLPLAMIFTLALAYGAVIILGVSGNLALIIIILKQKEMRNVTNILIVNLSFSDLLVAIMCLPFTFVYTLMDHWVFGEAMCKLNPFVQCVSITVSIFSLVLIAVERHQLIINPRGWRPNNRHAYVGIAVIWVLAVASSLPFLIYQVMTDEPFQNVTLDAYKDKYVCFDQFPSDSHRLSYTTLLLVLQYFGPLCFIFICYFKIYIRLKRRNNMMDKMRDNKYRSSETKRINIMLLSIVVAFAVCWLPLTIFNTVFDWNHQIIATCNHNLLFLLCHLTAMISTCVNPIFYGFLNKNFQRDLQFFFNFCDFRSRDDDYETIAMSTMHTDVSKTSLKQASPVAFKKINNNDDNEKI

Y4R = Y4R (Homo sapiens, UniProt P50391); assay: CaFlux Assay (FLIPR), Y4R
Chain of Y4R (P50391 whole entry): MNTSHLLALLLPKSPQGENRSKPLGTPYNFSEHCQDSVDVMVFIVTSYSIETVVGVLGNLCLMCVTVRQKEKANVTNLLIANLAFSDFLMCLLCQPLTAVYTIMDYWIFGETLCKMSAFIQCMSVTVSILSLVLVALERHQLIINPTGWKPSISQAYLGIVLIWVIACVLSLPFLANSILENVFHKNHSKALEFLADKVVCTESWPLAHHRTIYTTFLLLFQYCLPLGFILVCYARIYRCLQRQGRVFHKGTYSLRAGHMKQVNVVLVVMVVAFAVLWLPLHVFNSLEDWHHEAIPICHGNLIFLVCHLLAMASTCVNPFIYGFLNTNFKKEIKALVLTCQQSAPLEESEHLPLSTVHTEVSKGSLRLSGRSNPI

Row | SMILES | pEC50 (hNPY2R [1]) | pEC50 (Y5R) | Emax (Y5R) [%] | pEC50 (hNPY2R [2]) | pEC50 (Y1R) | pEC50 (Y4R)
1 | CCCCCCCCCCCCCCCCCCCC(=O)NCCCCCC(=O)NCCCC[C@H](NC(=O)[C@@H](N)[C@@H](C)CC)C(=O)N1CCN(c2ccc3ncn(CC(=O)N[C@@H](CCCNC(=N)N)C(=O)N[C@@H](Cc4c[nH]cn4)C(=O)N[C@@H](Cc4ccc(O)cc4)C(=O)N[C@@H](CC(C)C)C(=O)N[C@@H](CC(N)=O)C(=O)N[C@@H](Cc4c[nH]c5ccccc45)C(=O)N[C@H](C(=O)N[C@H](C(=O)N[C@@H](CCCNC(=N)N)C(=O)N[C@@H](CCC(N)=O)C(=O)N(C)[C@@H](CCCNC(=N)N)C(=O)N[C@@H](Cc4ccc(O)cc4)C(N)=O)[C@@H](C)O)C(C)C)c(=O)c3c2)CC1 [Example 30] | 9.02 | 6.51 | 28 | 9.85 | < 5.30 | < 5.30
2 | CCCCCCCCCCCC(=O)NCCC(=O)NCCCC[C@H](NC(=O)[C@@H](N)[C@@H](C)CC)C(=O)N1CCN(c2ccc3ncn(CC(=O)N[C@@H](CCCNC(=N)N)C(=O)N[C@@H](Cc4c[nH]cn4)C(=O)N[C@@H](Cc4ccc(O)cc4)C(=O)N[C@@H](CC(C)C)C(=O)N[C@@H](CC(N)=O)C(=O)N[C@@H](Cc4c[nH]c5ccccc45)C(=O)N[C@H](C(=O)N[C@H](C(=O)N[C@@H](CCCNC(=N)N)C(=O)N[C@@H](CCC(N)=O)C(=O)N(C)[C@@H](CCCNC(=N)N)C(=O)N[C@@H](Cc4ccc(O)cc4)C(N)=O)[C@@H](C)O)C(C)C)c(=O)c3c2)CC1 [Example 10] | 10.80 | 5.32 | – | 8.28 | < 5.30 | 5.46
3 | CCCCCCCCCCCCCCCCCCCC(=O)N[C@H](C(=O)N[C@H](C(=O)NCCCC[C@H](NC(=O)[C@@H](N)[C@@H](C)CC)C(=O)N1CCN(c2ccc3ncn(CC(=O)N[C@@H](CCCNC(=N)N)C(=O)N[C@@H](Cc4c[nH]cn4)C(=O)N[C@@H](Cc4ccc(O)cc4)C(=O)N[C@@H](CC(C)C)C(=O)N[C@@H](CC(N)=O)C(=O)N[C@@H](Cc4c[nH]c5ccccc45)C(=O)N[C@H](C(=O)N[C@H](C(=O)N[C@@H](CCCNC(=N)N)C(=O)N[C@@H](CCC(N)=O)C(=O)N(C)[C@@H](CCCNC(=N)N)C(=O)N[C@@H](Cc4ccc(O)cc4)C(N)=O)[C@@H](C)O)C(C)C)c(=O)c3c2)CC1)[C@@H](C)O)[C@@H](C)O [Example 43] | 10.13 | 6.61 | 23 | 9.59 | < 5.30 | < 5.30
4 | CCCC(=O)NCCCC[C@H](NC(=O)[C@@H](NC(C)=O)[C@@H](C)CC)C(=O)N1CCN(c2ccc3ncn(CC(=O)N[C@@H](CCCNC(=N)N)C(=O)N[C@@H](Cc4c[nH]cn4)C(=O)N[C@@H](Cc4ccc(O)cc4)C(=O)N[C@@H](CC(C)C)C(=O)N[C@@H](CC(N)=O)C(=O)N[C@@H](Cc4c[nH]c5ccccc45)C(=O)N[C@H](C(=O)N[C@H](C(=O)N[C@@H](CCCNC(=N)N)C(=O)N[C@@H](CCC(N)=O)C(=O)N(C)[C@@H](CCCNC(=N)N)C(=O)N[C@@H](Cc4ccc(O)cc4)C(N)=O)[C@@H](C)O)C(C)C)c(=O)c3c2)CC1 [Example 5] | 9.74 | 4.60 | – | 9.41 | < 5.30 | 4.50
5 | CCCCCCCCCCCCCCCCCCCC(=O)N[C@@H](CO)C(=O)N[C@@H](CO)C(=O)NCCCC[C@H](NC(=O)[C@@H](N)[C@@H](C)CC)C(=O)N1CCN(c2ccc3ncn(CC(=O)N[C@@H](CCCNC(=N)N)C(=O)N[C@@H](Cc4c[nH]cn4)C(=O)N[C@@H](Cc4ccc(O)cc4)C(=O)N[C@@H](CC(C)C)C(=O)N[C@@H](CC(N)=O)C(=O)N[C@@H](Cc4c[nH]c5ccccc45)C(=O)N[C@H](C(=O)N[C@H](C(=O)N[C@@H](CCCNC(=N)N)C(=O)N[C@@H](CCC(N)=O)C(=O)N(C)[C@@H](CCCNC(=N)N)C(=O)N[C@@H](Cc4ccc(O)cc4)C(N)=O)[C@@H](C)O)C(C)C)c(=O)c3c2)CC1 [Example 41] | 9.78 | 5.74 | 37 | 9.96 | < 5.30 | < 5.30
